Test results: ChEMBL document CHEMBL1150077, “Phospholipase D inhibitors from a Myrsine species” (J Nat Prod, 1995)
pIC50: −log10 of the molar value.

What was measured:
[1] = Inhibition of PMA-stimulated phospholipase D in human HL60 cells; assay type: cell-based; details: hl-60
[2] = Inhibition of fMLP-stimulated phospholipase D in human HL60 cells; assay type: cell-based; details: hl-60

With `CC1(C)CC[C@]23CO[C@@]4(CC[C@@H]5[C@@]6(C)CC[C@H](O[C@@H]7OC[C@H](O[C@@H]8O[C@H](CO)[C@@H](O)[C@H](O)[C@H]8O[C@@H]8OC[C@@H](O)[C@H](O)[C@H]8O)[C@H](O)[C@H]7O[C@@H]7O[C@H](CO)[C@@H](O)[C@H](O)[C@H]7O)C(C)(C)[C@@H]6CC[C@@]5(C)[C@]4(C)C[C@H]2O)[C@@H]3C1` [LYSIKOKIANOSIDE 1] the pIC50 [1] was 5.52 and the pIC50 [2] was 5.10.

Molecule `C[C@H]1O[C@@H](O[C@H]2[C@H](O[C@H]3CO[C@@H](O[C@H]4CC[C@]5(C)[C@H]6CC[C@]78OC[C@@]9(CCC(C)(C)C[C@H]97)[C@H](O)C[C@@]8(C)[C@]6(C)CC[C@H]5C4(C)C)[C@H](O[C@@H]4O[C@H](CO)[C@@H](O)[C@H](O)[C@H]4O)[C@H]3O)O[C@H](CO)[C@@H](O)[C@@H]2O)[C@@H](O)[C@@H](O)[C@@H]1O` has a pIC50 [1] of 5.70 and a pIC50 [2] of 4.62.
